According to BindingDB's records for doi:10.1021/jm9509096 (1996):
Structures can show the parent of a compound that is named as a salt.

Biological target: cGMP-specific 3',5'-cyclic phosphodiesterase (Cavia porcellus)
Assay: Inhibition in vitro of Phosphodiesterase 5 isolated from guinea pig lung

Row | SMILES | IC50
1 | COc1cc2cc(CO)c(CO)c(-c3cc[nH]c(=O)c3)c2cc1OC [4-(2,3-Bis-hydroxymethyl-6,7-dimethoxy-naphthalen-1-yl)-3H-pyridin-2-one] | 10 µM
2 | COc1cc2cc(CO)c(CO)c(-c3cc(OC)c(OC)c(C(=O)N(C)C)c3)c2cc1OC [5-(2,3-Bis-hydroxymethyl-6,7-dimethoxy-naphthalen-1-yl)-2,3-dimethoxy-N,N-dimethyl-benzamide] | 30 µM
3 | COc1cc2cc(CO)c(CO)cc2cc1OC [(3-Hydroxymethyl-6,7-dimethoxy-naphthalen-2-yl)-methanol] | > 100 µM
4 | CCOc1cc2cc(CO)c(CO)c(-c3cc(N)c(OC)c(OC)c3)c2cc1OCC [[1-(3-Amino-4,5-dimethoxy-phenyl)-6,7-diethoxy-3-hydroxymethyl-naphthalen-2-yl]-methanol; hydrochloride] | 30 µM
5 | COc1cc2cc(CO)c(CO)c(-c3cc(OC)c(OC)c(S(C)(=O)=O)c3)c2cc1OC [[3-Hydroxymethyl-1-(3-methanesulfonyl-4,5-dimethoxy-phenyl)-6,7-dimethoxy-naphthalen-2-yl]-methanol] | 53 µM
6 | COc1cc2cc(CO)c(CO)c(Cc3cc(OC)c(OC)c(OC)c3)c2cc1OC [[3-Hydroxymethyl-6,7-dimethoxy-1-(3,4,5-trimethoxy-benzyl)-naphthalen-2-yl]-methanol] | 20 µM
7 | COc1cc2cc(CO)c(CO)c(-c3cc(OC)c(OC)c(OC)c3)c2cc1OC [[3-Hydroxymethyl-6,7-dimethoxy-1-(3,4,5-trimethoxy-phenyl)-naphthalen-2-yl]-methanol] | 3 µM
8 | COc1ccc2c(-c3cc(OC)c(OC)c(OC)c3)c(CO)c(CO)cc2c1 [[3-Hydroxymethyl-6-methoxy-1-(3,4,5-trimethoxy-phenyl)-naphthalen-2-yl]-methanol] | 8 µM
9 | COc1cc(-c2c(CO)c(CO)cc3cc4c(cc23)OCO4)cc(OC)c1OC [[7-Hydroxymethyl-5-(3,4,5-trimethoxy-phenyl)-naphtho[2,3-d][1,3]dioxol-6-yl]-methanol] | > 30 µM
